# Patent publication US20260053767A1, “Hepatoprotective Compositions And Methods” (Jemyll, Ltd., priority 2022, published 2026)
# What was measured:
# [1] = NIDDM patients, intravenous infusion; cited from earlier work
# [2] = test system: NAMPT; experiment: NAMPT enzyme levels in endothelial cells; type: cell-based; details: EOMA endothelial cells, 6 hours; p=0.018
# From the text: (§1) To that end, the inventors used endothelial cells (EOMA cells) and liver cells (AML-12 cells) in vitro and quantified various markers in response to exposure of the cells to environmental challenge in the presence and absence of DDA at low concentrations. Unless indicated otherwise, the DDA concentration in the in vitro experiments was 5 mcg per microliter. More specifically, the inventors measured p-H2AX protein levels as a marker for DNA damage, PGC-1α protein levels as a marker for mitochondrial biogenesis, NAMPT enzyme levels as a marker for potential for NAD+ production, and total antioxidant capacity as a marker of cellular health. In addition, the inventors also measured global SIRT activity as a gauge of activity for all SIRT enzymes, and in particular SIRT1 enzyme levels as markers for autophagy and various beneficial processes associated with a caloric restricted diet, and SIRT3 levels as markers for mitochondrial function and longevity.
# In yet a further series of experiments, the inventors also sought to confirm whether or not DDDA would have a modulatory effect in endothelial cells using the same markers and experimental conditions as noted above.
# On the other hand, where endothelial cells were exposed to DDDA, there was a significant difference in NAMPT enzyme levels as is exemplarily depicted in FIG. 15.
# [3] = test system: cancer bearing mice; experiment: Administration of DDDA to cancer bearing mice; details: mouse, in vivo
# From the text: Thus, DDDA in low doses (5 g or less, or 4 g or less, or 3 g, or less, or 2 g or less, or 1 g or less) may be used for chemoprevention of HCC in healthy liver or livers of NASH/NAFLD individuals, presumably due to reduction of chronic subacute inflammation.
# [4] = test system: SIRT3; experiment: SIRT3 protein levels in liver cells; type: cell-based; details: AML-12 liver cells, 24 hours; p=0.028
# From the text: as §1
# In still further experiments, the inventors also investigated whether or not DDDA could have stimulatory effects on selected SIRT proteins. More specifically, the inventors tested the effects of DDDA on SIRT3 and SIRT1, and exemplary results are shown in FIG. 9 and FIG. 10, respectively. […] N=5-6 plates per treatment. […] Beyond this trend, however, no other observations were evident. N=5-6 plates per treatment.
# [5] = test system: Wistar rats; experiment: Study 2 (reversal): liver histology (H&E, Oil Red O, Sirius Red); type: in vivo; details: Study 2: 9 weeks diet, then 4 weeks treatment
# Experimental: Study design: All animal procedures were approved by the Catholic University of Rome Institutional Animal Care Committee. The design of the studies is summarized in FIG. 18, Panels A and B. • Study 1: Twenty adult Wistar rats, aged 8-10 weeks, were included in the study. The rats were housed in individual cages at 22° C. with 12-h light cycles and had ad libitum access to food and water. Rats were fed a high-fat high-cholesterol diet (44% Carbohydrate, 14% Protein, 42% fat+0.2% Cholesterol) (Mucedola, Milan, IT) for four weeks in the presence or absence of 1% Dodecanedioic acid, sodium salt (w/vol) dissolved in the water (FIG. 18, Panel A). Body weight and food/water intake were monitored weekly. • Study 2: Twenty adult Wistar rats, aged 8-10 weeks, were included in the study. The rats were housed in individual cages at 22° C. with 12-h light cycles and had ad libitum access to food and water. Rats were fed a high-fat high-cholesterol diet (44% Carbohydrate, 14% Protein, 42% fat+0.2% Cholesterol) (Mucedola, Milan, IT). After nine weeks of diet, rats were randomly assigned to one of the following groups: Four weeks of high-fat high-cholesterol diet or four weeks of high-fat high-cholesterol diet and 1% Dodecanedioic acid, sodium salt (w/v) dissolved in the water FIG. 18, Panel B). Body weight and food/water intake were monitored weekly.
# Histology: The day of the sacrifice fresh portions of liver were cut, embedded in cryo-embedding media (OCT) and snap frozen in liquid nitrogen. Biopsies were cut using a cryostat (5 μm) and slides stored a −20° C. until analyses.
# Hematoxylin and Eosin staining was performed to assess hepatic steatosis. Slides were fixed 10 minutes with 95% ethanol, stained with hematoxylin for 1 minute, washed with distilled water, stained with eosin for 30 seconds and cleared in two changes of pure ethanol and two changes of xylene.
# Oil Red O was performed to assess intracellular lipid accumulation. Slides were fixed overnight with 4% formalin, stained with Oil Red O solution for 1 hour. Counterstain was performed with Hematoxylin solution.
# Sirius Red was used to identify hepatic fibrosis. Slides were fixed 10 minutes with 4% formalin, stained in Direct red 80 for 1 hour, washed in acidified water and dehydrate in 3 changes of absolute ethanol. After brief clearing in xylene, the slides were mounted in a resinous medium. Images were taken with an optical microscope (Leica DM2000, Wetzlar, DE). […]
# Panels A and B. • Study 1: Twenty adult Wistar rats, aged 8-10 weeks, were included in the study. […] Body weight and food/water intake were monitored weekly. • Study 2: Twenty adult Wistar rats, aged 8-10 weeks, were included in the study. […] Body weight and food/water intake were monitored weekly. […]
# [6] = test system: PGC-1α; experiment: PGC-1α protein levels in liver cells (marker for mitochondrial biogenesis); type: cell-based; details: AML-12 liver cells
# From the text: as §1
# The inventors also evaluated activity of DDA on energy metabolism, and particularly on mitochondrial health and/or mitochondrial biogenesis. The protein followed was PGC-1α, a known marker for mitochondrial biogenesis, and exemplary results are depicted in FIG. 7. […] Such finding is not entirely unexpected as PGC-1α is a transcriptional co-activator and as such tightly regulated.
compound,measurement,setting,value
"O=C(O)CCCCCCCCCCC(=O)O [DDDA, dodecanedioic acid]",plasma glucose levels during infusion,[1],significantly decreased
same,NAMPT enzyme levels,[2],increased NAMPT enzyme levels
same,effect in cancer bearing mice,[3],helpful for liver blastomas and potentially NASH associated carcinomas
same,SIRT3 protein levels,[4],significantly increased
same,"diet-induced NASH (histology, reversal)",[5],reverses diet-induced insulin NASH
same,fibrosis (Picro Sirius Red),[5],decreasing
same,hepatic steatosis (Hematoxylin and Eosin),[5],decreasing
same,neutral lipids (Oil Red O),[5],decreasing
same,PGC-1α levels,"[6]; 6 hours, p=0.001",increased PGC1α levels
same,PGC-1α levels,"[6]; 24 hours, pattern relative to 6 hours",paradoxically reversed
